Results as given in ChEMBL document CHEMBL4507257, “Data for DCP probe ABT-100” (2021).

Legend:
[1] = biological target: Cyclin-dependent kinase-like 2 (Homo sapiens) (UniProt Q92772); details: Compound concentration 1000.0 nM
[2] = biological target: Alpha-1B adrenergic receptor (Homo sapiens) (UniProt P35368); details: Compound concentration 10.0 uM
[3] = biological target: Mitogen-activated protein kinase kinase kinase kinase 4 (Homo sapiens) (UniProt O95819); details: Compound concentration 1000.0 nM
[4] = biological target: Tyrosine-protein kinase Yes (Homo sapiens) (UniProt P07947); details: Compound concentration 1000.0 nM
[5] = biological target: Dual specificity mitogen-activated protein kinase kinase 5 (Homo sapiens) (UniProt Q13163); details: Compound concentration 1000.0 nM
[6] = biological target: Ribosomal protein S6 kinase alpha-2 (Homo sapiens) (UniProt Q15349); details: Compound concentration 1000.0 nM
[7] = biological target: Mitogen-activated protein kinase 13 (Homo sapiens) (UniProt O15264); details: Compound concentration 1000.0 nM
[8] = biological target: Serine/threonine-protein kinase PAK 3 (Homo sapiens) (UniProt O75914); details: Compound concentration 1000.0 nM
[9] = biological target: Cyclin-dependent kinase 17 (Homo sapiens) (UniProt Q00537); details: Compound concentration 1000.0 nM
[10] = biological target: Ephrin type-B receptor 1 (Homo sapiens) (UniProt P54762); details: Compound concentration 1000.0 nM
[11] = biological target: Receptor-interacting serine/threonine-protein kinase 2 (Homo sapiens) (UniProt O43353); details: Compound concentration 1000.0 nM
[12] = biological target: Phosphatidylinositol 5-phosphate 4-kinase type-2 beta (Homo sapiens) (UniProt P78356); details: Compound concentration 1000.0 nM
[13] = biological target: Dual specificity protein kinase CLK1 (Homo sapiens) (UniProt P49759); details: Compound concentration 1000.0 nM
[14] = biological target: Serine/threonine-protein kinase TBK1 (Homo sapiens) (UniProt Q9UHD2); details: Compound concentration 1000.0 nM
[15] = biological target: Phosphatidylinositol 4,5-bisphosphate 3-kinase catalytic subunit gamma isoform (Homo sapiens) (UniProt P48736); details: Compound concentration 1000.0 nM
[16] = biological target: Receptor-interacting serine/threonine-protein kinase 1 (Homo sapiens) (UniProt Q13546); details: Compound concentration 1000.0 nM
[17] = test system: Receptor-type tyrosine-protein kinase FLT3 (Homo sapiens), P36888 [UNDEFINED MUTATION]; details: Compound concentration 1000.0 nM
[18] = biological target: Serine/threonine-protein kinase Sgk1 (Homo sapiens) (UniProt O00141); details: Compound concentration 1000.0 nM
[19] = biological target: Serine/threonine-protein kinase PLK1 (Homo sapiens) (UniProt P53350); details: Compound concentration 1000.0 nM
[20] = biological target: G protein-coupled receptor kinase 3 (Homo sapiens) (UniProt P35626); details: Compound concentration 1000.0 nM
[21] = biological target: RAF proto-oncogene serine/threonine-protein kinase (Homo sapiens) (UniProt P04049); details: Compound concentration 1000.0 nM
[22] = test system: Epidermal growth factor receptor (Homo sapiens), P00533 [UNDEFINED MUTATION]; details: Compound concentration 1000.0 nM
[23] = biological target: Cyclin-dependent kinase 5 (Homo sapiens) (UniProt Q00535); details: Compound concentration 1000.0 nM
[24] = biological target: Serine/threonine-protein kinase 33 (Homo sapiens) (UniProt Q9BYT3); details: Compound concentration 1000.0 nM
[25] = biological target: Histamine H2 receptor (Homo sapiens) (UniProt P25021); details: Compound concentration 10.0 uM
[26] = biological target: Beta-3 adrenergic receptor (Homo sapiens) (UniProt P13945); details: Compound concentration 10.0 uM
[27] = biological target: Rho-associated protein kinase 2 (Homo sapiens) (UniProt O75116); details: Compound concentration 1000.0 nM
[28] = biological target: Vascular endothelial growth factor receptor 2 (Homo sapiens) (UniProt P35968); details: Compound concentration 1000.0 nM
[29] = biological target: Calcium/calmodulin-dependent protein kinase type 1 (Homo sapiens) (UniProt Q14012); details: Compound concentration 1000.0 nM
[30] = biological target: Ankyrin repeat and protein kinase domain-containing protein 1 (Homo sapiens) (UniProt Q8NFD2); details: Compound concentration 1000.0 nM
[31] = biological target: BMP-2-inducible protein kinase (Homo sapiens) (UniProt Q9NSY1); details: Compound concentration 1000.0 nM
[32] = biological target: Serine/threonine-protein kinase PknB (Mycobacterium tuberculosis) (UniProt P9WI81); details: Compound concentration 1000.0 nM
[33] = biological target: Tyrosine-protein kinase Lck (Homo sapiens) (UniProt P06239); details: Compound concentration 1000.0 nM
[34] = biological target: Fibroblast growth factor receptor 2 (Homo sapiens) (UniProt P21802); details: Compound concentration 1000.0 nM
[35] = biological target: Phosphorylase b kinase regulatory subunit alpha, liver isoform (Homo sapiens) (UniProt P46019); details: Compound concentration 1000.0 nM
[36] = biological target: Mitogen-activated protein kinase kinase kinase 11 (Homo sapiens) (UniProt Q16584); details: Compound concentration 1000.0 nM
[37] = biological target: Tyrosine-protein kinase JAK2 (Homo sapiens) (UniProt O60674); details: Compound concentration 1000.0 nM
[38] = biological target: Vascular endothelial growth factor receptor 3 (Homo sapiens) (UniProt P35916); details: Compound concentration 1000.0 nM
[39] = biological target: Epidermal growth factor receptor (Homo sapiens) (UniProt P00533); details: Compound concentration 1000.0 nM
[40] = biological target: Ephrin type-A receptor 5 (Homo sapiens) (UniProt P54756); details: Compound concentration 1000.0 nM
[41] = biological target: Serine/threonine-protein kinase D1 (Homo sapiens) (UniProt Q15139); details: Compound concentration 1000.0 nM
[42] = biological target: cGMP-dependent protein kinase 2 (Homo sapiens) (UniProt Q13237); details: Compound concentration 1000.0 nM
[43] = biological target: Dual specificity mitogen-activated protein kinase kinase 6 (Homo sapiens) (UniProt P52564); details: Compound concentration 1000.0 nM
[44] = biological target: Serine/threonine-protein kinase Nek1 (Homo sapiens) (UniProt Q96PY6); details: Compound concentration 1000.0 nM
[45] = biological target: Tyrosine-protein kinase HCK (Homo sapiens) (UniProt P08631); details: Compound concentration 1000.0 nM

Chain of Dual specificity mitogen-activated protein kinase kinase 5 (Homo sapiens) (Q13163 whole entry): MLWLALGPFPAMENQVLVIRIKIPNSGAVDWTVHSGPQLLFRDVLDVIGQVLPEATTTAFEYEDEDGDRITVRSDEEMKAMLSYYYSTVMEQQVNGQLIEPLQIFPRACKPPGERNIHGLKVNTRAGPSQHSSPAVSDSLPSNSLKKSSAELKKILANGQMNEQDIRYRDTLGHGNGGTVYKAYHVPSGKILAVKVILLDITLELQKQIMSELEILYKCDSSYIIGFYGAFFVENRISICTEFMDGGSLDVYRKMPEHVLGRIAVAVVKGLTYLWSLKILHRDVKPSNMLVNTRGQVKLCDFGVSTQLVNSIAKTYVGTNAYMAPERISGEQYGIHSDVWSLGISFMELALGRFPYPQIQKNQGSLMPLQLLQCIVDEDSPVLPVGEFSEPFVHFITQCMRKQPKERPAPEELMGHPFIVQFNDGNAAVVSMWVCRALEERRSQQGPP
Chain of Tyrosine-protein kinase JAK2 (Homo sapiens) (O60674 whole entry): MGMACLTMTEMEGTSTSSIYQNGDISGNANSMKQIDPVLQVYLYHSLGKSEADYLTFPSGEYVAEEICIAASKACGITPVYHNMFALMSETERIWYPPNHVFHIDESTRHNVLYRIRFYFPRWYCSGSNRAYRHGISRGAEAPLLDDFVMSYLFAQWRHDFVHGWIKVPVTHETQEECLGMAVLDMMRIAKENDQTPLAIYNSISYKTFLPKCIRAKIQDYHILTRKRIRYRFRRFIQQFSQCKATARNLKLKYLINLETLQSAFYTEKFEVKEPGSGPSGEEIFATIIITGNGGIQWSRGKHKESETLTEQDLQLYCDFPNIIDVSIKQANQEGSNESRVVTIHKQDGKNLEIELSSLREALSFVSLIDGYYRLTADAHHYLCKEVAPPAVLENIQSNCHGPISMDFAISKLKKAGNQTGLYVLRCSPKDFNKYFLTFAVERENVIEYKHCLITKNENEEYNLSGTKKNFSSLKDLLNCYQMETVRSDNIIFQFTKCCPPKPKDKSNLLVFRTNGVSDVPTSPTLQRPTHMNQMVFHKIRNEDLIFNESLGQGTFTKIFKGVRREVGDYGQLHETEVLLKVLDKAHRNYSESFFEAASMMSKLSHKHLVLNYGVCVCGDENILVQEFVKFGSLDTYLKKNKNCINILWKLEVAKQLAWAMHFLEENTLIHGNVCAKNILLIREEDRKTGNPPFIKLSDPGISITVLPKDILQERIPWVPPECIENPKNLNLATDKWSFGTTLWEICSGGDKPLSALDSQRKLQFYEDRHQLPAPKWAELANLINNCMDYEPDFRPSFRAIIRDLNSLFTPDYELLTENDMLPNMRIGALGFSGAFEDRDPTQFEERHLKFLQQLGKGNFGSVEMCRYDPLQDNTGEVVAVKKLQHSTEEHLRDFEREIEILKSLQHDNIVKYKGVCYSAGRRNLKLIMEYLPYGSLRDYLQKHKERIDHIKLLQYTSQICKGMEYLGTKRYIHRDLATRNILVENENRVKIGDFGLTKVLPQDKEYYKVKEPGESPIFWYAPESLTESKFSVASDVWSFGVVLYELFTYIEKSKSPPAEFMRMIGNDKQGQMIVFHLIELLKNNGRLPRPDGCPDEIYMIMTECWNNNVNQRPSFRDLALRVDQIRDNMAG
Chain of Phosphorylase b kinase regulatory subunit alpha, liver isoform (Homo sapiens) (P46019 whole entry, canonical isoform): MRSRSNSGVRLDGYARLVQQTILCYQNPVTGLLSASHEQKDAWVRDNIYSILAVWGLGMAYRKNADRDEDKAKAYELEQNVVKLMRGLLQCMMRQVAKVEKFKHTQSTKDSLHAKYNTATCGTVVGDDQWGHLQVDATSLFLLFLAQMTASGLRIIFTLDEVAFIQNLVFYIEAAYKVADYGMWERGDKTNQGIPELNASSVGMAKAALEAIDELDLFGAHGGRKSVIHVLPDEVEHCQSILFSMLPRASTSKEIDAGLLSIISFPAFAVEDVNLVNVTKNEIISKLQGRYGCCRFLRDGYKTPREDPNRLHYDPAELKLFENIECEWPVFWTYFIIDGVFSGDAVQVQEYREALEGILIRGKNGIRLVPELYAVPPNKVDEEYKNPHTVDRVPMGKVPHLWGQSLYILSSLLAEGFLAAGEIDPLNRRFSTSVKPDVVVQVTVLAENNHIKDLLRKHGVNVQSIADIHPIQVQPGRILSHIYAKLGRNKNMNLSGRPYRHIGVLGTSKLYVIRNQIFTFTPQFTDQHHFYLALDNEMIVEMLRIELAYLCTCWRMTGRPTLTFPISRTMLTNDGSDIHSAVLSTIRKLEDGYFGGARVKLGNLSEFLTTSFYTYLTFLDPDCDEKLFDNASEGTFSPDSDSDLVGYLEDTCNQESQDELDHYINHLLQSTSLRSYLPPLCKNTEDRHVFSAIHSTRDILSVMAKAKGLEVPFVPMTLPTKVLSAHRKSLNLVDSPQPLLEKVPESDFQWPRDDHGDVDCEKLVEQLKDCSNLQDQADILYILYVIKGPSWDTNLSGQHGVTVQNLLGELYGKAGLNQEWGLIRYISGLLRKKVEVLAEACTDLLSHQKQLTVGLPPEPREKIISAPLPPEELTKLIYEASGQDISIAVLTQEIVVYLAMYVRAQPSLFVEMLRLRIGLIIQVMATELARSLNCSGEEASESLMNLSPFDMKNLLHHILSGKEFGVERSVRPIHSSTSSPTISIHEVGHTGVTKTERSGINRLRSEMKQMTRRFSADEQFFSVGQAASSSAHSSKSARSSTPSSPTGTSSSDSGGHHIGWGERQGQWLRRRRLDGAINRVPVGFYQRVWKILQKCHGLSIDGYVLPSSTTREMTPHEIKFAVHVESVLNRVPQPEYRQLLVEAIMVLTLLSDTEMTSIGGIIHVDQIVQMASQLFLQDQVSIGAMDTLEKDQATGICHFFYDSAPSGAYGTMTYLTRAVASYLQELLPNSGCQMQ
Chain of G protein-coupled receptor kinase 3 (Homo sapiens) (P35626 whole entry): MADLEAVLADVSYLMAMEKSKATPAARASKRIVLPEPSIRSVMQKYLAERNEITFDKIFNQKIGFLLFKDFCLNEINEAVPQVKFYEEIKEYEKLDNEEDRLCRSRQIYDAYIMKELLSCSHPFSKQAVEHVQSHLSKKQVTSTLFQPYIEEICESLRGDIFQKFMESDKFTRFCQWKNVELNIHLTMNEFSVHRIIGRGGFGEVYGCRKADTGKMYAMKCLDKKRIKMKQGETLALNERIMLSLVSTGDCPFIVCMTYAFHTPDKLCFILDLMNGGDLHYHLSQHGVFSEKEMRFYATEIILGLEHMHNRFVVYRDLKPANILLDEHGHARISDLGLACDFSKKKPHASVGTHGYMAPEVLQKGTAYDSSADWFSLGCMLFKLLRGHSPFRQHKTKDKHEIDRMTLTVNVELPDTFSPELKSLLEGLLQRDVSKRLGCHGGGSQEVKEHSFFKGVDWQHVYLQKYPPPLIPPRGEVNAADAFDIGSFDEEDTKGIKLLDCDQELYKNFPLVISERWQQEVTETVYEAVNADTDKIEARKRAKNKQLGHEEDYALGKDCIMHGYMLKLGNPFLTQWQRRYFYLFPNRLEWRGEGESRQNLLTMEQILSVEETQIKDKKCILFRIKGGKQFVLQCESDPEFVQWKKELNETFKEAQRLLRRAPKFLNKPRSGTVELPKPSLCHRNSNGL
Chain of Ephrin type-A receptor 5 (Homo sapiens) (P54756 whole entry): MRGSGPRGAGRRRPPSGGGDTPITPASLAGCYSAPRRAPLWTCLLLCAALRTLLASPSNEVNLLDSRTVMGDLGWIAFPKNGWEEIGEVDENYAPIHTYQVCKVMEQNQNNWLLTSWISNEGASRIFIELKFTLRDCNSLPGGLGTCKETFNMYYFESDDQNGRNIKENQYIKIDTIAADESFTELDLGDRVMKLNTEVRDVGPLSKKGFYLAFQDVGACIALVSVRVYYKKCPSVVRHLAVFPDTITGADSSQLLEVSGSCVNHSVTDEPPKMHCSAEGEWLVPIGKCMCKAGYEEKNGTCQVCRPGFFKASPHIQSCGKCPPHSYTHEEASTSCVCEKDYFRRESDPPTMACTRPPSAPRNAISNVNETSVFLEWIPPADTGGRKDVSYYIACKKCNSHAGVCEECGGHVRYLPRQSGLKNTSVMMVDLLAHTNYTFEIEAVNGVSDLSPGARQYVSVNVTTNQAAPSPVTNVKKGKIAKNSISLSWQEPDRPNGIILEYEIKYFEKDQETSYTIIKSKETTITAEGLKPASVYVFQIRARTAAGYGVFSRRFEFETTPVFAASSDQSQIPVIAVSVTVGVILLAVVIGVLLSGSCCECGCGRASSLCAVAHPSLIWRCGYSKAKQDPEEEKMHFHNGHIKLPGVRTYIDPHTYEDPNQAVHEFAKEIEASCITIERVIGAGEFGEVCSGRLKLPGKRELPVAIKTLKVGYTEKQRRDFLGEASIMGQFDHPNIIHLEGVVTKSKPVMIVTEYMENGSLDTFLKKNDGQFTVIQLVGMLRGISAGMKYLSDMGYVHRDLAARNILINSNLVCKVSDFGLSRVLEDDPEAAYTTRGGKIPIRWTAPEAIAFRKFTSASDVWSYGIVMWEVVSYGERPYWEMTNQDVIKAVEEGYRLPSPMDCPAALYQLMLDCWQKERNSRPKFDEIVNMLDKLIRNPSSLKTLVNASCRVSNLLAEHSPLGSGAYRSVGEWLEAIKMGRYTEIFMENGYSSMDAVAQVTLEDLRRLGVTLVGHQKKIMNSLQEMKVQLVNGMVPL
Chain of Calcium/calmodulin-dependent protein kinase type 1 (Homo sapiens) (Q14012 whole entry, looked up, the tested form may be a part): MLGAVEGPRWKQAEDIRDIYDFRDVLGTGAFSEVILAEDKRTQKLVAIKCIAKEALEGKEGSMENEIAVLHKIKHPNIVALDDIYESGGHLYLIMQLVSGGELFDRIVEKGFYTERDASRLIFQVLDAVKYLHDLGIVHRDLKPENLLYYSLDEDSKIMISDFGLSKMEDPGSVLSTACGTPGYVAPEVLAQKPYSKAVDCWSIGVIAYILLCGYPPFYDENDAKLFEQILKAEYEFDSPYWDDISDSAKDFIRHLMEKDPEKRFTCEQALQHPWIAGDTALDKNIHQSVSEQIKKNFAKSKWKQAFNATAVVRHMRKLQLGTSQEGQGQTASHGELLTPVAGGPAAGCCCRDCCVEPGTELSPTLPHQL

## Cn1cncc1[C@](O)(COc1ccc(C#N)cc1-c1ccc(OC(F)(F)F)cc1)c1ccc(C#N)cc1 [ABT-100]
[1]
  residual activity: 88%
[2]
  inhibition: 16.6%
[3]
  residual activity: 100%
[4]
  residual activity: 94%
[5]
  residual activity: 83%
[6]
  residual activity: 85%
[7]
  residual activity: 87%
[8]
  residual activity: 96%
[9]
  residual activity: 100%
[10]
  residual activity: 98%
[11]
  residual activity: 100%
[12]
  residual activity: 100%
[13]
  residual activity: 70%
[14]
  residual activity: 100%
[15]
  residual activity: 100%
[16]
  residual activity: 79%
[17]
  residual activity: 98%
[18]
  residual activity: 76%
[19]
  residual activity: 77%
[20]
  residual activity: 48%
[21]
  residual activity: 100%
[22]
  residual activity: 78%
[23]
  residual activity: 92%
[24]
  residual activity: 74%
[25]
  inhibition: 14.4%
[26]
  inhibition: 32.9%
[27]
  residual activity: 94%
[28]
  residual activity: 96%
[29]
  residual activity: 99%
[30]
  residual activity: 100%
[31]
  residual activity: 97%
[32]
  residual activity: 97%
[33]
  residual activity: 82%
[34]
  residual activity: 86%
[35]
  residual activity: 92%
[36]
  residual activity: 86%
[37]
  residual activity: 91%
[38]
  residual activity: 77%
[39]
  residual activity: 80%
[40]
  residual activity: 97%
[41]
  residual activity: 99%
[42]
  residual activity: 100%
[43]
  residual activity: 76%
[44]
  residual activity: 80%
[45]
  residual activity: 100%

## Cn1cncc1[C@@](O)(COc1ccc(C#N)cc1-c1ccc(OC(F)(F)F)cc1)c1ccc(C#N)cc1 [A-108]
[1]
  residual activity: 93%
[2]
  inhibition: 5.97%
[3]
  residual activity: 100%
[4]
  residual activity: 100%
[5]
  residual activity: 88%
[6]
  residual activity: 98%
[7]
  residual activity: 90%
[8]
  residual activity: 91%
[9]
  residual activity: 95%
[10]
  residual activity: 100%
[11]
  residual activity: 100%
[12]
  residual activity: 100%
[13]
  residual activity: 100%
[14]
  residual activity: 100%
[15]
  residual activity: 69%
[16]
  residual activity: 90%
[17]
  residual activity: 100%
[18]
  residual activity: 100%
[19]
  residual activity: 83%
[20]
  residual activity: 100%
[21]
  residual activity: 85%
[22]
  residual activity: 100%
[23]
  residual activity: 96%
[24]
  residual activity: 69%
[25]
  inhibition: 5.38%
[26]
  inhibition: -5.85%
[27]
  residual activity: 100%
[28]
  residual activity: 100%
[29]
  residual activity: 100%
[30]
  residual activity: 100%
[31]
  residual activity: 79%
[32]
  residual activity: 78%
[33]
  residual activity: 100%
[34]
  residual activity: 100%
[35]
  residual activity: 92%
[36]
  residual activity: 100%
[37]
  residual activity: 65%
[38]
  residual activity: 90%
[39]
  residual activity: 100%
[40]
  residual activity: 67%
[41]
  residual activity: 98%
[42]
  residual activity: 87%
[43]
  residual activity: 94%
[44]
  residual activity: 100%
[45]
  residual activity: 100%
